# Source: patent US20240150334A1, “HSD17B13 INHIBITORS AND/OR DEGRADERS” (Pfizer Inc., priority 2022, published 2024)
# Structures can show the parent of a compound that is named as a salt.
# Molecular target: wild type human HSD17B13 (Homo sapiens (Human), UniProt Q7Z5P4)
# Experiment: HEK_Beta-Est LCMS_IC50_Tekcel, whole-cell HEK-HSD17B13 inhibition assay, estrone production by LCMS
# Assay type: cell-based
# Conditions: geometric mean, HEK cells stably expressing wild type human HSD17B13, 25 μM FAC beta-estradiol, read-out: HEK_Beta-Est LCMS_IC50—Tekcel GMean IC50
# Protocol: HEK_Beta-Est LCMS_IC50_Tekcel
# Inhibition potency of test compounds was determined using a whole-cell HEK-HSD17B13 inhibition assay, utilizing a LCMS readout.
# HSD17B13 uses the oxidized form of nicotinamide adenine dinucleotide (NAD+) as a cofactor during metabolism of beta-estradiol (substrate), converting NAD+ to the reduced form (NADH) and beta-estradiol to its product (estrone). Estrone production is quantified by LCMS, and used as a measure of HSD17B13 enzyme activity.
# ([…]: 5% CO2). […] Growth media was then removed from the cell plates and replaced with 10 μL of 2×FAC test compound, and incubated for 1 hour (with lid) at 37° C. […] The reaction was incubated for 2 hours (with lid) at 37° C. […] Amount of product (estrone) was then quantified by LCMS. Data expressed as product area ratio (PAR) were then normalized to control wells using Activity Base (IDBS). Zero percent effect (ZPE) was defined as PAR generated from uninhibited HSD17B13 (vehicle control).
# Sequence of wild type human HSD17B13 (Q7Z5P4 20-300): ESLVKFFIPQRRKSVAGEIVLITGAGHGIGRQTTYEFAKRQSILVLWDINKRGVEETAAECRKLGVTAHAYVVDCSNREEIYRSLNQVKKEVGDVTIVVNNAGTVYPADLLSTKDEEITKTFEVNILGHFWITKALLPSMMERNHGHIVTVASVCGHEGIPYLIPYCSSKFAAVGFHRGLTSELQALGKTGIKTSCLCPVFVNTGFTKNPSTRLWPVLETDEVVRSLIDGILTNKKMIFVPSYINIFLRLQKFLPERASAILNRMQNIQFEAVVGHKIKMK
row,Structure (SMILES),IC50
1,"O=C(NC[C@H]1CC[C@H](n2cc3ccc(-c4ncc5cc[nH]c5n4)cc3n2)CC1)c1cc(F)c(O)c(F)c1 [Example 97, 3,5-difluoro-4-hydroxy-N-({(1r,4r)-4-[6-(7H-pyrrolo[2,3-d]pyrimidin-2-yl)-2H-indazol-2-yl]cyclohexyl}methyl) benzamide]",300 nM
2,"COc1ncc(-c2cc3cn([C@H]4CC[C@H](CNC(=O)c5cc(F)c(O)c(F)c5)CC4)nc3cn2)cn1 [Example 201, 3,5-difluoro-4-hydroxy-N-({(1r,4r)-4-[5-(2-methoxypyrimidin-5-yl)-2H-pyrazolo[3,4-c]pyridin-2-yl]cyclohexyl}methyl) benzamide, trifluoroacetate salt]",350 nM
3,"CC(C)c1ncc(-c2ccc3cn([C@H]4CC[C@H](CNC(=O)c5cc(F)c(O)c(F)c5)CC4)nc3c2)o1 [Example 121, 3,5-difluoro-4-hydroxy-N-{[(1r,4r)-4-{6-[2-(propan-2-yl)-1,3-oxazol-5-yl]-2H-indazol-2-yl}cyclohexyl]methyl} benzamide]",150 nM
4,"Cc1cccc(-c2noc([C@]34CC[C@](CNC(=O)c5cc(F)c(O)c(F)c5)(CC3)CC4)n2)n1 [Example 194, 3,5-difluoro-4-hydroxy-N-({4-[3-(6-methylpyridin-2-yl)-1,2,4-oxadiazol-5-yl]bicyclo[2.2.2]octan-1-yl}methyl) benzamide]",230 nM
5,"O=C(NC[C@H]1CC[C@H](n2cc3cc(Cl)ccc3n2)CC1)c1cc(F)c(O)c(F)c1F [Example 26, N-{[(1r,4r)-4-(5-chloro-2H-indazol-2-yl)cyclohexyl]methyl}-2,3,5-trifluoro-4-hydroxybenzamide]",190 nM
6,"O=C(NC[C@H]1CC[C@H](c2nc(-c3cnc(C(F)(F)F)cn3)no2)CC1)c1cc(F)c(O)c(F)c1F [Example 148, 2,3,5-trifluoro-4-hydroxy-N-{[(1r,4r)-4-{3-[5-(trifluoromethyl)pyrazin-2-yl]-1,2,4-oxadiazol-5-yl}cyclohexyl]methyl} benzamide]",470 nM
7,"Cn1cc(-c2ccn3cc([C@H]4CC[C@H](CNC(=O)c5cc(F)c(O)c(F)c5F)CC4)nc3c2)cn1 [Example 30, 2,3,5-trifluoro-4-hydroxy-N-({(1r,4r)-4-[7-(1-methyl-1H-pyrazol-4-yl)imidazo[1,2-a]pyridin-2-yl]cyclohexyl}methyl) benzamide]",360 nM
8,"O=C(NC[C@H]1CC[C@H](n2cc3ccc(-c4ccns4)cc3n2)CC1)c1cc(F)c(O)c(F)c1 [Example 83, 3,5-difluoro-4-hydroxy-N-({(1r,4r)-4-[6-(1,2-thiazol-5-yl)-2H-indazol-2-yl]cyclohexyl}methyl) benzamide]",94 nM
9,"O=C(NC[C@H]1CC[C@H](n2cc3ccc(-c4csc(N5CCOCC5)n4)cc3n2)CC1)c1cc(F)c(O)c(F)c1 [Example 114, 3,5-difluoro-4-hydroxy-N-{[(1r,4r)-4-{6-[2-(morpholin-4-yl)-1,3-thiazol-4-yl]-2H-indazol-2-yl}cyclohexyl]methyl} benzamide]",170 nM
10,"O=C(NC[C@H]1CC[C@H](n2cc3cc(-c4cnn(C(F)F)c4)ccc3n2)CC1)c1cc(F)c(O)c(F)c1F [Example 161, N-{[(1r,4r)-4-{5-[1-(difluoromethyl)-1H-pyrazol-4-yl]-2H-indazol-2-yl}cyclo-hexyl]methyl}-2,3,5-trifluoro-4-hydroxy-benzamide]",180 nM
11,"O=C(NC[C@H]1CC[C@H](n2cc3ccc(-c4cnn(CC(F)F)c4)cc3n2)CC1)c1cc(F)c(O)c(F)c1 [Example 10, N-{[(1r,4r)-4-{6-[1-(2,2-Difluoroethyl)-1H-pyrazol-4-yl]-2H-indazol-2-yl}cyclohexyl]methyl}-3,5-difluoro-4-hydroxybenzamide, trifluoroacetate salt]",120 nM
12,"O=C(NC[C@H]1CC[C@H](n2cc3ccc(-c4cnn(CCO)c4)cc3n2)CC1)c1cc(F)c(O)c(F)c1 [Example 160, 3,5-difluoro-4-hydroxy-N-{[(1r,4r)-4-{6-[1-(2-hydroxyethyl)-1H-pyrazol-4-yl]-2H-indazol-2-yl}cyclo-hexyl]methyl} benzamide, trifluoroacetate salt]",400 nM
13,"O=C(NC[C@H]1CC[C@H](n2cc3cc(OCc4cccc(C(F)(F)F)n4)ncc3n2)CC1)c1cc(F)c(O)c(F)c1 [Example 33, 3,5-difluoro-4-hydroxy-N-{[(1r,4r)-4-(5-{[6-(trifluoromethyl)pyridin-2-yl]methoxy}-2H-pyrazolo[3,4-c]pyridin-2-yl)cyclohexyl]methyl}benzamide]",380 nM
14,"Cn1cc(-c2ccc3nc([C@H]4CC[C@H](CNC(=O)c5cc(F)c(O)c(F)c5F)CC4)cn3c2)cn1 [Example 29, 2,3,5-trifluoro-4-hydroxy-N-({(1r,4r)-4-[6-(1-methyl-1H-pyrazol-4-yl)imidazo[1,2-a]pyridin-2-yl]cyclohexyl}methyl)benzamide]",350 nM
15,"O=C(NC[C@H]1CC[C@H](n2cc3ccc(-c4cn5ccccc5n4)cc3n2)CC1)c1cc(F)c(O)c(F)c1 [Example 103, 3,5-difluoro-4-hydroxy-N-({(1r,4r)-4-[6-(imidazo[1,2-a]pyridin-2-yl)-2H-indazol-2-yl]cyclohexyl}methyl) benzamide, trifluoroacetate salt]",360 nM
16,"COc1ccc(-c2ccc3cn([C@H]4CC[C@H](CNC(=O)c5cc(F)c(O)c(F)c5)CC4)nc3c2)nc1 [Example 99, 3,5-difluoro-4-hydroxy-N-({(1r,4r)-4-[6-(5-methoxy-pyridin-2-yl)-2H-indazol-2-yl]cyclohexyl}methyl) benzamide, trifluoroacetate salt]",220 nM
17,"O=C(NC[C@H]1CC[C@H](n2cc3ccc(-c4csc5cncn45)cc3n2)CC1)c1cc(F)c(O)c(F)c1 [Example 84, 3,5-difluoro-4-hydroxy-N-({(1r,4r)-4-[6-(imidazo[5,1-b][1,3]thiazol-3-yl)-2H-indazol-2-yl]cyclohexyl}methyl) benzamide, trifluoroacetate salt]",390 nM
18,"O=C(NC[C@H]1CC[C@H](n2cc3ccc(-n4cncn4)cc3n2)CC1)c1cc(F)c(O)c(F)c1F [Example 165, 2,3,5-trifluoro-4-hydroxy-N-({(1r,4r)-4-[6-(1H-1,2,4-triazol-1-yl)-2H-indazol-2-yl]cyclohexyl}methyl) benzamide]",420 nM
19,"COc1ccc(-c2ccc3cn([C@H]4CC[C@H](CNC(=O)c5cc(F)c(O)c(F)c5)CC4)nc3c2)cn1 [Example 108, 3,5-difluoro-4-hydroxy-N-({(1r,4r)-4-[6-(6-methoxy-pyridin-3-yl)-2H-indazol-2-yl]cyclohexyl}methyl) benzamide, trifluoroacetate salt]",140 nM

# Other lines, results leading:
row,IC50,Structure (SMILES)
1,200 nM,"Cc1cncc(-c2ccc3cn([C@H]4CC[C@H](CNC(=O)c5cc(F)c(O)c(F)c5)CC4)nc3c2)c1 [Example 90, 3,5-difluoro-4-hydroxy-N-({(1r,4r)-4-[6-(5-methylpyridin-3-yl)-2H-indazol-2-yl]cyclohexyl}methyl) benzamide, trifluoroacetate salt]"
2,180 nM,"O=C(NC[C@H]1CC[C@H](n2cc3ccc(-c4ccn5ccnc5c4)cc3n2)CC1)c1cc(F)c(O)c(F)c1 [Example 117, 3,5-difluoro-4-hydroxy-N-({(1r,4r)-4-[6-(imidazo[1,2-a]pyridin-7-yl)-2H-indazol-2-yl]cyclohexyl}methyl) benzamide, trifluoroacetate salt]"
3,270 nM,"O=C(NC[C@H]1CC[C@H](n2cc3cc(-c4cncnc4)ccc3n2)CC1)c1cc(F)c(O)c(F)c1 [Example 157, 3,5-difluoro-4-hydroxy-N-({(1r,4r)-4-[5-(pyrimidin-5-yl)-2H-indazol-2-yl]cyclohexyl}methyl) benzamide, trifluoroacetate salt]"
4,110 nM,"O=C(NC[C@H]1CC[C@H](n2cc3cc(-c4ncccn4)ccc3n2)CC1)c1cc(F)c(O)c(F)c1 [Example 154, 3,5-difluoro-4-hydroxy-N-({(1r,4r)-4-[5-(pyrimidin-2-yl)-2H-indazol-2-yl]cyclohexyl}methyl) benzamide]"
5,170 nM,"N#Cc1cccc(-c2ccc3nn([C@H]4CC[C@H](CNC(=O)c5cc(F)c(O)c(F)c5)CC4)cc3c2)c1 [Example 156, N-({(1r,4r)-4-[5-(3-cyanophenyl)-2H-indazol-2-yl]cyclohexyl}methyl)-3,5-difluoro-4-hydroxybenzamide]"
6,220 nM,"O=C(NC[C@H]1CC[C@H](n2cc3ccc(-c4cnc5[nH]ccc5c4)cc3n2)CC1)c1cc(F)c(O)c(F)c1 [Example 112, 3,5-difluoro-4-hydroxy-N-({(1r,4r)-4-[6-(1H-pyrrolo[2,3-b]pyridin-5-yl)-2H-indazol-2-yl]cyclohexyl}methyl) benzamide, trifluoroacetate salt]"
7,150 nM,"O=C(NC[C@H]1CC[C@H](n2cc3ccc(-c4ccn5ncnc5c4)cc3n2)CC1)c1cc(F)c(O)c(F)c1 [Example 119, 3,5-difluoro-4-hydroxy-N-({(1r,4r)-4-[6-([1,2,4]triazolo[1,5-a]pyridin-7-yl)-2H-indazol-2-yl]cyclo-hexyl}methyl) benzamide, trifluoroacetate salt]"
8,130 nM,"O=C(NC[C@H]1CC[C@H](n2cc3ccc(-c4ccn5nccc5c4)cc3n2)CC1)c1cc(F)c(O)c(F)c1 [Example 89, 3,5-difluoro-4-hydroxy-N-({(1r,4r)-4-[6-(pyrazolo[1,5-a]pyridin-5-yl)-2H-indazol-2-yl]cyclohexyl}methyl) benzamide, trifluoroacetate salt]"
